According to ChEMBL document CHEMBL5724696, “Autophagy assay results for EUbOPEN Chemogenomics Library” (2024):
Several values for one entry are separate records, joined by “and”; a condition that tells them apart may be missing. Equal values may be shown once.

What was measured:
Assay type in all cases: functional, Homo sapiens
[1] = tested on: TERT-RPE1; experiment: (§1) Here: values are normalized to the negative (DMSO; defined as 0% autophagy induction) and positive (250nM Torin1; mTOR inhibitor; defined as maximal inducer of autophagy = 100%) control compounds and represented as % of autophagy induction. […] The impact of autophagy induction on cells is complex and depends on the affected target. As such, the magnitude of a phenotype may not be equally mirrored in the %-value of autophagy induction and vice versa. The dynamics of the induction may indicate the mode of activation: e.g. activation via phosphorylation or a signaling cascade may occur fast, while activation via transcription factors may take considerably longer. […] Of note, treatment concentrations may be sub-optimal for specific compounds, leading to false negative annotations.; conditions: Culturing Media DMEM/F12 (1:1), 1 % Penicillin/Streptomycin, 10% Fetal bovin serum Add-On: No, Screening Media Control DMEM/F12 (1:1), Screening Media Samples DMEM/F12 (1:1)
[2] = tested on: U2OS; experiment: as §1; conditions: Culturing Media DMEM, 1 % Penicillin/Streptomycin, 10% Fetal bovin serum Add-On: No, Screening Media Control DMEM, Screening Media Samples DMEM
[3] = tested on: U2OS; experiment: as §1; conditions: Culturing Media DMEM, 1 % Penicillin/Streptomycin, 10% Fetal bovin serum Add-On: No, Screening Media Control DMEM, Screening Media Samples DMEM; remark: listed apart in the source
[4] = Compound Concentration 0.5 uM, Timepoint 12 hours
[5] = Compound Concentration 0.5 uM, Timepoint 24 hours
[6] = Compound Concentration 0.5 uM, Timepoint 36 hours
[7] = Compound Concentration 0.5 uM, Timepoint 60 hours
[8] = Compound Concentration 2 uM, Timepoint 12 hours
[9] = Compound Concentration 2 uM, Timepoint 24 hours
[10] = Compound Concentration 2 uM, Timepoint 36 hours
[11] = Compound Concentration 2 uM, Timepoint 60 hours
[12] = Compound Concentration 10 uM, Timepoint 12 hours
[13] = Compound Concentration 10 uM, Timepoint 24 hours
[14] = Compound Concentration 10 uM, Timepoint 36 hours
[15] = Compound Concentration 10 uM, Timepoint 60 hours

Structure (SMILES)	autophagy induction [2, 4]	autophagy induction [2, 5]	autophagy induction [2, 6]	autophagy induction [2, 7]	autophagy induction [2, 8]	autophagy induction [2, 9]	autophagy induction [2, 10]	autophagy induction [2, 11]	autophagy induction [2, 12]	autophagy induction [2, 13]	autophagy induction [2, 14]	autophagy induction [2, 15]	autophagy induction [3, 4]	autophagy induction [3, 5]	autophagy induction [3, 6]	autophagy induction [3, 7]	autophagy induction [3, 8]	autophagy induction [3, 9]	autophagy induction [3, 10]	autophagy induction [3, 11]	further results
COc1ccc(S(=O)(=O)N2c3ccc(Cl)cc3[C@](O)(c3ccccc3Cl)[C@@H]2C(=O)N2CCC[C@H]2C(N)=O)cc1OC [RELCOVAPTAN]	-0.4488%	-3.182%	-42.6034%	-2.284%	-3.799%	-4.202%	-60.4871%	-1.266%	4.624%	2.3507%	-58.7044%	-2.271%	-8.786%	-9.572%	-12.5258%	-16.7068%	-3.79%	-9.305%	-13.7756%	-18.6617%	autophagy induction ([1]; Compound Concentration 0.5 uM, Timepoint 12 hours, 12 h, 0.5 µM): -0.4521% and -5.349%; autophagy induction ([1]; Compound Concentration 0.5 uM, Timepoint 24 hours, 24 h, 0.5 µM): -0.2273% and -4.727%; autophagy induction ([1]; Compound Concentration 0.5 uM, Timepoint 36 hours, 36 h, 0.5 µM): -2.897% and -4.661%; autophagy induction ([1]; Compound Concentration 0.5 uM, Timepoint 60 hours, 60 h, 0.5 µM): -4.347% and -7.0603%; autophagy induction ([1]; Compound Concentration 2 uM, Timepoint 12 hours, 12 h, 2 µM): 0.8726% and -2.524%; autophagy induction ([1]; Compound Concentration 2 uM, Timepoint 24 hours, 24 h, 2 µM): -1.739% and -2.756%; autophagy induction ([1]; Compound Concentration 2 uM, Timepoint 36 hours, 36 h, 2 µM): -2.675% and -2.785%; autophagy induction ([1]; Compound Concentration 2 uM, Timepoint 60 hours, 60 h, 2 µM): -4.303% and -2.0726%; autophagy induction ([1]; Compound Concentration 10 uM, Timepoint 12 hours, 12 h, 10 µM): 0.7279% and 5.088%; autophagy induction ([1]; Compound Concentration 10 uM, Timepoint 24 hours, 24 h, 10 µM): 4.093% and 9.7265%; autophagy induction ([1]; Compound Concentration 10 uM, Timepoint 36 hours, 36 h, 10 µM): 6.165% and 16.6943%; autophagy induction ([1]; Compound Concentration 10 uM, Timepoint 60 hours, 60 h, 10 µM): 11.326% and 28.0498%; autophagy induction [3, 12]: -6.744%; autophagy induction [3, 13]: -13.3744%; autophagy induction [3, 14]: -5.479%; autophagy induction [3, 15]: -4.839%
C[C@H](Cc1cc2c(c(C(N)=O)c1)N(CCCO)CC2)NCCOc1ccccc1OCC(F)(F)F [SILODOSIN]	-11.9601%	-4.037%	-2.198%	-1.72%	-7.096%	-4.088%	-2.301%	-1.816%	0.9061%	0.8821%	-0.4631%	-2.909%	8.749%	-4.272%	-5.327%	-13.2389%	-4.216%	0.5128%	-1.271%	-7.276%	autophagy induction [1, 4]: -3.093%; autophagy induction [1, 5]: -6.268%; autophagy induction [1, 6]: -8.97%; autophagy induction [1, 7]: -13.239%; autophagy induction [1, 8]: -3.63%; autophagy induction [1, 9]: -5.97%; autophagy induction [1, 10]: -7.85%; autophagy induction [1, 11]: -11.8179%; autophagy induction [1, 12]: -0.1283%; autophagy induction [1, 13]: -0.9694%; autophagy induction [1, 14]: 1.604%; autophagy induction [1, 15]: -1.313%; autophagy induction [3, 12]: 1.6%; autophagy induction [3, 13]: 6.633%; autophagy induction [3, 14]: 3.208%; autophagy induction [3, 15]: 0.1621%
